Data: patent US11464825B2, “Adiponectin peptidomimetics for treating ocular disorders” (Allysta Pharmaceuticals, Inc., priority 2015, dated 2022)
Primed or numbered codes have the meaning given here. Where no end group is shown, it is not given here. [ ]: non-standard residue; d: D form. Dab′ = 2,3-diamino butyric acid; Nva = CCC[C@H](N)C(=O)O

Tests used:
[1] = system: experimental dry eye (EDE) mice; assay: Corneal fluorescein staining score in experimental dry eye (EDE) mice; format: in vivo, C57BL/6 mice; settings: 0.01% in BSS, 3 times a day; for corneal staining (corneal irregularity) compared to untreated EDE mice: topical bilateral 2 μl/eye, score 0-4 averaged over five regions, day 5 and day 10, p-value <0.05 vs. EDE; for corneal surfaces compared to untreated normal mice (UT) and positive control globular adiponectin-treated mice (gAdipo): topical, EDE mice
Procedure: (§1) Experimental dry eye (EDE) was induced in 8-week old female C57BL/6 mice by subcutaneous injection of 0.5 mg/0.2 mL scopolamine hydrobromide (Sigma-Aldrich, St. Louis, Mo.) three times a day (9 AM, 1:30 PM and 6 PM). A dose of 0.3 mL scopolamine hydrobromide was administered at each injection. The mice were also exposed to an air draft and 30% ambient humidity. 6 experimental groups used in this study included: (1) untreated control mice (UT; no dry eye treatment and no topical treatment); (2) untreated EDE control mice (EDE; received no topical administration); (3) EDE control mice received a balanced salt solution (BSS); (4) EDE mice received 0.01% single chain adiponectin peptidomimetic (ADP355) in BSS; (5) EDE mice receiving 0.01% peptide dimer adiponectin peptidomimetic (ADP399) in BSS; and (6) EDE mice receiving 0.01% recombinant globular adiponectin (gAdipo) in BSS. Each group included 5 mice. EDE mice treated with BSS received topical bilateral administration of […], 3 times a day. EDE mice treated with ADP355 received topical bilateral administration of 2 μl/eye, 3 times a day. EDE mice treated with ADP-399 received topical bilateral administration of 2 μl/eye, 3 times a day. The gAdipo treated mice served as a positive treatment control. Mice were evaluated at baseline, day 5 and day 10 after the treatment initiation. In some experiments, ADP355, ADP-399 and gAdipo were resuspended in 0.01% BSA.
The severity of corneal epithelial damage was evaluated by corneal fluorescein staining. Briefly, 1% fluorescein dye (1 μl) was instilled into the eye and then the eye was washed with saline. 10 minutes after application of the dye, the eye was photographed with a slip lamp microscope using a cobalt blue light. The stained area was graded using a scoring system by two blinded observers. […] The average score from the five regions was recorded. […] In addition, the adiponectin peptidomimetic-treated mice (ADP355 and ADP-399) had corneal surfaces that were similar to those of untreated normal mice (UT) and positive control globular adiponectin-treated mice (gAdipo). The corneal surface scores in all groups at day 10 were similar to those at day 5 after treatment initiation.

[2] = system: experimental dry eye (EDE) mice; assay: Tear volume by phenol red thread tear test in experimental dry eye (EDE) mice; format: in vivo, C57BL/6 mice; settings: 0.01% in BSS, 3 times a day; for tear production, as measured by tear volume, compared to untreated or BSS treated EDE mice: topical bilateral 2 μl/eye, day 5 and day 10 after treatment initiation, p-value <0.05 vs. EDE; for difference in tear volume among those treated with ADP355, ADP399 and globular adiponectin: topical, EDE mice
Procedure: as §1
Tear volume was measured using a phenol red thread tear test. Briefly, a cotton thread treated with phenol red at its tip (Zone-Quick; Oasis, Glendora, Calif.) was held with jeweler's forceps and placed in the tear meniscus of the lateral canthus for 20 secs to contact tear fluid. Using a microscope, the length of the red portion (wet portion) of the thread was measured in millimeters. A standard curve was derived to convert the distance measurement into tear volume.

Row | Substance | corneal staining (corneal irregularity) compared to untreated EDE mice [1] | corneal surfaces compared to untreated normal mice (UT) and positive control globular adiponectin-treated mice (gAdipo) [1] | tear production, as measured by tear volume, compared to untreated or BSS treated EDE mice [2] | difference in tear volume among those treated with ADP355, ADP399 and globular adiponectin [2]
1 | (DAsn-Ile-Pro-Nva-Leu-Tyr-DSer-Phe-Ala-DSer-His-Pro)2-Dab-NH2 ([dN]IP[Nva]LY[dS]FA[dS]HP[Dab′]-NH2; also: branched dimer: two chains joined via Dab) [ADP399, linear branched dimer of ADP355] | less corneal staining | similar | higher | no significant difference
2 | DAsn-Ile-Pro-Nva-Leu-Tyr-DSer-Phe-Ala-DSer-NH2 ([dN]IP[Nva]LY[dS]FA[dS]-NH2; N-terminus assumed; SMILES CCC[C@H](NC(=O)[C@@H]1CCCN1C(=O)[C@@H](NC(=O)[C@H](N)CC(N)=O)[C@@H](C)CC)C(=O)N[C@@H](CC(C)C)C(=O)N[C@@H](Cc1ccc(O)cc1)C(=O)N[C@H](CO)C(=O)N[C@@H](Cc1ccccc1)C(=O)N[C@@H](C)C(=O)N[C@H](CO)C(N)=O) [ADP355, single chain adiponectin peptidomimetic] | less corneal staining | similar | higher | no significant difference
